Legend:
inbred mouse strains = test: Survival of inbred mouse strains injected daily with CBE (GD induction); type: in vivo; settings: for Average survival time: CBE 25 mg/kg/day i.p. daily from P8
From the text: Mice—Pure inbred mouse strains were obtained from the Jackson laboratories (USA), Harlan UK and Harlan Israel. Specifically, BTBR T^+ Itpr3^tf/J C3H/HeJ, DBA/2J, MRL/MpJ, WSB/EiJ, MOLF/Ei, PWD/PhJ, KK/HiJ, BPL/1J, I/LnJ, BPN/3J, and LP/J were obtained from Jackson; A/J, AKR/J, NZW/LacJ, 129S1/SvImJ were obtained from Harlan laboratories in the UK; and C57BL/6JOlaHsd, BALB/cJ and FVB/NJ were obtained from the Harlan laboratories in Israel. Gba^flox/flox; nestin-Cre mice, a mouse model of GD were generated as described in Vitner et al. Nature Medicine (2014) 20: 204-208; and Enquist, I. B. et al. Proc. Natl. Acad. Sci. USA (2007) 104: 17483-17488. These mice recapitulate many features of human nGD, although their Gba1 deficiency is restricted to neural and macroglial lineages. Mice were maintained under specific pathogen-free conditions and handled according to protocols approved by the Weizmann Institute Animal Care Committee according to international guidelines.
CBE injections—Conduritol-β-epoxide (CBE) was obtained from Calbiochem Millipore (Darmstadt, Germany). CBE at a dose of 25 mg or 50 mg per kg body weight per day or PBS (control) were administered i.p. to mice daily starting from postnatal day 8 (P8) of age.
To study the potential of different mouse stains to serve as a reliable model for Type 2/3 GD, 15 different inbred mouse strains were chosen. CBE has been used to induce GD in mice for many years (Mumford et al., 1975), and it was used to generate the first animal model for GD disease. CBE is water soluble and crosses the blood brain barrier. The 15 mice strains chosen have diverse phylogenetic origins and their SNP profile is freely available (FIG. 1A). Mice were daily injected i.p. with 25 mg/kg/day of CBE starting on postnatal day 8 and for the rest of their lives (Vitner et al., 2014). […] The strains could be divided into two groups: mice in the first group were very homogeneous in their behavior; they developed a very aggressive disease with a short life span. The second group of strains presented a much longer life expectancy with a broader spectrum of phenotypes.

[1] = system: motor coordination of CBE-treated mice; test: Locomotor testing by the hanging wire test; type: in vivo, mouse; settings: short living CBE-treated strains; weekly from P21 for 2 months
From the text: Locomotor testing—Locomotor coordination was weekly evaluated in the treated strains by the hanging wire test, a validated test for LSD mouse models (Alvarez et al. 2008). Briefly, the mouse was placed with forepaws at a center of a horizontal bar (3 mm diameter; 35 mm long).
To further characterize the effect of CBE treatment on the different strains, motor behavior was followed weekly using the hanging wire test, starting at postnatal day 21 for a period of 2 months. The hanging wire test evaluates coordination and locomotor function, wherein a high score means better coordination. […] Of note, strains PWD/PhJ and WSB/EiJ were excluded in the motor behavior analysis due to their wild behavior.

[2] = system: CD68-positive cells in cortical layer V; test: Immunohistochemistry of CD68-positive cells in cortical layer V of the brain; type: in vivo, mouse
Protocol: Immunohistochemistry—Mice were sacrificed and whole brains were fixed in 4% paraformaldehyde:PBS overnight at 4° C. Tissues were washed in PBS and sectioned with a microtome. Forty micrometer coronal sections were processed free floating in 2% BSA, 0.2% Triton X-100, PBS through all blocking, antibody incubation, and wash steps. Sections were incubated overnight at 4° C. with primary anti rat CD68 (AbD Serotec, Oxford, UK; 1:1000). Following washes, sections were incubated with secondary Cy2-conjugated donkey anti-rat antibody (1:200, Jackson). The presence of CD68-positive cells in cortical layer V of the brain was analyzed using an epifluorescent microscope (Zeiss).
To verify the results of Example 1, the presence of CD68-positive cells in the cortical layer V of the brain was analyzed in two exemplary strains, AKR/J (average mortality on day 24) and BTBR T^+ITPR3TF/J (100% mortality on day 199).

Grin2b = test: Cortical Grin2b mRNA levels by qPCR; type: in vivo, mouse; settings: 10 days CBE vs PBS; short living (A/J, C57BL6/JolaHsd) and long living (NZW, FVB) strains
Protocol: RNA extraction and quantitative PCR Following treatment, mice were sacrificed and their brains removed, placed on a Young Mouse Brain Slicer Matrix (BSMYS001-1, Zivic instruments, Pittsburgh, Pa., USA) and cut into 1 mm coronal sections. The cerebral cortex was separated using a spatula and snap-frozen in liquid N2 and stored at −80° C. Total RNA was isolated using the RNeasy mini kit (Qiagen GmbH, Hilden, Germany) according to manufacturer's instructions. Quantitative polymerase chain reaction (Q-PCR) was performed using PerfeCTa SYBR Green FastMix (Quanta BioSciences, Gaithersburg, Md., USA) and an ABI Prism 7300 Sequence Detection System (Applied Biosystems, Foster City, Calif., USA). […] Fold-change in mRNA levels was calculated using the comparative cycle threshold method using TATA box binding protein (TBP) for normalization. P-values were calculated using a two-tailed, two-independent sample Student's t-test. […]
Based on the predictive studies described above, the involvement of Grin2b in the pathogenesis of neuropathic GD was evaluated. […] Since non-coding SNPs can regulate the expression of quantitative trait locus (QTL), the mRNA levels of Grin2b were determined by qPCR. […] The transcript levels was determined in 2 short living (A/J and C57BL6/JolaHsd) and 2 long living strains (NZW and FVB) 10 days following PBS or CBE treatment.

rat hippocampal neurons = rat hippocampal neurons treated with CBE; high concentrations of glutamate; in vitro; cited from earlier work

O[C@H]1[C@H](O)[C@@H](O)[C@@H]2O[C@@H]2[C@@H]1O [CBE, Conduritol-β-epoxide]
Average survival time (inbred mouse strains; 129S1/SvImJ mice): 108 days
Average survival time (inbred mouse strains; A/J mice): 23 days
Average survival time (inbred mouse strains; AKR/J mice): 24 days
average mortality on day (inbred mouse strains; AKR/J mice, CBE-treated): 24 days
Average survival time (inbred mouse strains; BALB/cJ mice): 130 days
Average survival time (inbred mouse strains; BTBR T+ITPR3TF/J mice): 199 days
100% mortality on day (inbred mouse strains; BTBR T+ITPR3TF/J mice, CBE-treated): 199 days
Average survival time (inbred mouse strains; C3H/HeJ mice): 24 days
Average survival time (inbred mouse strains; C57BL6/JolaHsd mice): 29 days
Average survival time (inbred mouse strains; DBA/2J mice): 26 days
Average survival time (inbred mouse strains; FVB/NJ mice): 106 days
Average survival time (inbred mouse strains; KK/HlJ mice): 143 days
Average survival time (inbred mouse strains; MOLF/Ei mice): 41 days
Average survival time (inbred mouse strains; MRL/MpJ mice): 30 days
Average survival time (inbred mouse strains; NZW/LacJ mice): 84 days
Average survival time (inbred mouse strains; PWD/Ph mice): 119 days
Average survival time (inbred mouse strains; WSB/EiJ mice): 38 days
motor behavior (hanging wire test) [1]: poor motor behaviors starting at very early time points
brain pathology (CD68-positive cells, cortical layer V) ([2]; AKR/J mice treated with CBE, sacrificed P22): overt brain pathology
brain pathology (CD68-positive cells, cortical layer V) and mortality ([2]; BTBR T+ITPR3TF/J mice treated with CBE, sacrificed P208): less sensitive to CBE both in terms of mortality and brain pathology
Grin2b expression levels (cortical mRNA, qPCR) (Grin2b): increased only in the short-living strains
sensitivity of neurons to glutamate toxicity (rat hippocampal neurons): more sensitive to the toxic effects of high concentrations of glutamate

— patent US20170273917A1, “NMDA RECEPTOR ANTAGONISTS FOR TREATING GAUCHER DISEASE” (Yeda Research and Development Co. Ltd., priority 2014, published 2017)
